Measurements as given in patent US20260108514A1, “METHOD OF INHIBITING EPITHELIAL-MESENCHYMAL TRANSITION AND CANCER METASTASIS” (Agency for Science, Technology and Research, priority 2022, published 2026).
Counter-ions that a name gives are not always drawn.

How the values were obtained:
MCF7-SLUG+SOX9 cells = assay: MCF7-SLUG+SOX9 orthotopic xenograft, EMT-dependent lung metastasis; type: in vivo, NSG mice
Source text: FIG. 3: Identification of inhibitors of epithelial-mesenchymal transition from high-throughput screening of bioactive lipid library with the screening platform. A) Dual-glo Luciferase assay of HMLE-ZEB1 screened with bioactive lipid library. Data are represented as ratio of mean Firefly luciferase (FF) and Renilla luciferase (Ren) readings, n=3. Hits are circled in red. B) Average Z-score of Dual-glo Luciferase assay in HMLE-ZEB1 cells screened with bioactive lipid library; n=4. Compounds shown in red indicates top hits. C) Protein expression of EMT markers E-cadherin, Fibronectin Vimentin and Snail in DMSO and 4-OHT induced cells treated with and without Cay10603 (10 nM) in HMLE-TWIST. GAPDH was used as a loading control. D) (First)Morphological evidence and (second) Fluorescence activated sorting analysis (FACS) of CD44 and CD24 staining in DMSO, 4-OHT, CAY10603 and 4-OHT+CAY10603 treated cells. Numbers within graph represent percentages of gated cells indicating CD44highCD24low (above) and CD44lowCD24high cells (below). E) Representative bright-field images and quantification of DMSO,4-OHT, CAY,4-OHT+CAY treated cells as shown by of scratch wound migration assay before and after 6 h of scratch in presence or absence of 4-OHT-induced EMT. Images were taken at 4× magnification. Scale bar represents 100 μm. F) (First) Representative images of whole-mount fluorescence lung image and (Second) histology of lung sections. Scale bar represents 100 μm. (Third)Tumors were stained for HDAC6 and counterstained with hematoxylin. Scale bar represents 100 μm. (Fourth) Primary tumors were also stained for E-cadherin, Fibronectin and DAPI. Scale bar represents 50 μm. n=4 mice for each group. G) Total number of metastasis as counted from whole mount of lung with −Dox, +Dox and ACY-1215+Dox treatment. n=3-4 for each group. **P<0.01 as determined by as determined by one-way ANOVA with Dunnet's multiple comparison test. All data are presented as mean+/−SEM. *P<0.05, **P<0.01, ***P<0.001 and ****P<0.0001, not significant (ns) as determined by unpaired two-tailed t-test unless otherwise stated.
FIG. 4. Disruption of microtubule depolymerization through HDAC6 inhibition and GSK3β inhibition restricts EMT. A) Top, Phase-contrast images of morphological changes in DMSO and 4-OHT induced cells treated with Ken, ACY-1215 and combination of both in HMLE-TWIST. Arrows represent cells growing as epithelial clusters. Scale represents 100 μm. Second, Immunofluorescence staining of acetylated α-tubulin in DMSO, Ken+ACY-1215, 4-OHT, ACY-1215+4-OHT, Ken+4-OHT and Ken+ACY-1215+4-OHT treated cells. Scale represents 50 μm. (Third) Fluorescence activated sorting analysis (FACS) of CD44 and CD24 staining in DMSO, Ken+ACY-1215, 4-OHT, ACY-1215+4-OHT, Ken+4-OHT and Ken+ACY-1215+4-OHT treated cells. […] C) Quantification of protein expression for DMSO, Ken+ACY, 4-OHT, ACY+4-OHT, Ken+4-OHT and Ken+ACY+4-OHT treated HMLE-TWIST cells (n=3). […] E) Quantification of percentage area closure in DMSO, Ken+ACY-1215, 4-OHT, ACY-1215+4-OHT, Ken+4-OHT and Ken+ACY-1215+4-OHT treated HMLE-TWIST cells. Graph represents mean+/−SEM of n=4. *P<0.05 and **P<0.01 as determined by unpaired t-test (two-tailed) by Welch's correction. F) Total number of metastasis as counted from whole mount of lung in mice implanted with shControl and shGSK3β cells treated with ACY-1215 in presence or absence of Dox treatment (n=3-4). […]

[1] = system: HMLE-ZEB1 cells (CDH1prom-luc reporter, Dox-induced ZEB1 driven EMT); assay: Dual-Glo luciferase CDH1prom-luc reporter screen of LOPAC and bioactive lipid library; type: cell-based; conditions: ratio Firefly (CDH1prom-luc) / Renilla luciferase, normalized to DMSO = 1; primary screen
Source text: FIG. 1: Design of a cell-based reporter assay. Doxycycline (Dox)-induced ZEB1 driven EMT (HMLE-ZEB1 cells) was used to conduct high-throughput screen for identifying inhibitors of epithelial-mesenchymal transition.
A) Dual-Glo luciferase assay to test gene promoters that include CD44, CD166, CDH1 and SERPINE1 in Dox-induced HMLE-ZEB1 cells. Data are represented as ratio of mean Firefly luciferase (FF) and Renilla luciferase (Ren) readings; n=3. B) Dual-glo Luciferase assay of HMLE-ZEB1 screened with LOPAC library. Data are represented as ratio of mean Firefly luciferase (FF) and Renilla luciferase (Ren) readings, n=3. Hits are circled in red. C) Average Z-score of Dual-glo Luciferase assay in HMLE-ZEB1 cells screened with LOPAC library; n=4. D) Validation of screening hits by Dual-glo Luciferase assay in HMLE-ZEB1 screened with LOPAC library by primary and secondary screens. E) Hits from secondary screen validated at different concentrations 5, 1.66, 0.55, 0.18 and 0.06 μM. N=3 F) Validation of the screening hits by CDH1 gene expression. n=3. G) Top, Phase-contrast images of morphological changes of HMLE-ZEB1 cells in DMSO and Dox-treated cells in presence or absence of Kenpaullone (0.25 μM) (DMSO, Dox, Ken, and Dox+Ken). Scale represents 100 μm. Second, Immunofluorescence staining of epithelial marker E-Cadherin (ECAD) and mesenchymal marker Vimentin in DMSO, Dox, Ken and Dox+Ken treated cells. Scale represents 50 μm. Bottom, Fluorescence activated sorting analysis (FACS) of CD44 and CD24 staining in Dox induced HMLE-ZEB1 cells in presence or absence of Ken. Numbers within graph represent percentages of gated cells indicating CD44high CD24low (above) and CD44lowCD24high cells (below). H) TdTomato-labelled MCF7-SLUG+SOX9 cells that were injected orthotopically into the mammary fat pads and induced by Doxycycline (+Dox) to express SLUG and SOX9 to promote metastasis in shControl and shGSK3β cells. Top, Representative fluorescence images of whole-mount of lung and second, histology of lung sections. Scale bar represents 100 μm. Third, Tumors were stained for GSK3β and counterstained with hematoxylin. Scale bar represents 100 μm. Fourth, primary tumors were also stained for E-cadherin, Fibronectin and DAPI. Scale bar represents 50 μm. n=3-5 mice for each group. I) Total number of metastasis as counted from whole mount of lung in mice implanted with in shControl and shGSK3β cells. n=3-5 for each group. **P<0.01 and ***P<0.001 as determined by as determined by one-way ANOVA with Dunnet's multiple comparison test. All data are presented as mean+/−SEM. *P<0.05, **P<0.01, ***P<0.001 and ****P<0.0001, not significant (ns) as determined by unpaired two-tailed t-test unless otherwise stated.
FIG. 3: Identification of inhibitors of epithelial-mesenchymal transition from high-throughput screening of bioactive lipid library with the screening platform. A) Dual-glo Luciferase assay of HMLE-ZEB1 screened with bioactive lipid library. Data are represented as ratio of mean Firefly luciferase (FF) and Renilla luciferase (Ren) readings, n=3. Hits are circled in red. B) Average Z-score of Dual-glo Luciferase assay in HMLE-ZEB1 cells screened with bioactive lipid library; n=4. Compounds shown in red indicates top hits. C) Protein expression of EMT markers E-cadherin, Fibronectin Vimentin and Snail in DMSO and 4-OHT induced cells treated with and without Cay10603 (10 nM) in HMLE-TWIST. GAPDH was used as a loading control. D) (First)Morphological evidence and (second) Fluorescence activated sorting analysis (FACS) of CD44 and CD24 staining in DMSO, 4-OHT, CAY10603 and 4-OHT+CAY10603 treated cells. Numbers within graph represent percentages of gated cells indicating CD44highCD24low (above) and CD44lowCD24high cells (below). E) Representative bright-field images and quantification of DMSO,4-OHT, CAY,4-OHT+CAY treated cells as shown by of scratch wound migration assay before and after 6 h of scratch in presence or absence of 4-OHT-induced EMT. […]

HMLE-ZEB1 cells = assay: Validation of ZEB1-induced EMT inhibition (morphology); type: cell-based; conditions: Dox-induced HMLE-ZEB1, Kenpaullone 0.25 μM
Source text: A) Dual-Glo luciferase assay to test gene promoters that include CD44, CD166, CDH1 and SERPINE1 in Dox-induced HMLE-ZEB1 cells. Data are represented as ratio of mean Firefly luciferase (FF) and Renilla luciferase (Ren) readings; n=3. B) Dual-glo Luciferase assay of HMLE-ZEB1 screened with LOPAC library. Data are represented as ratio of mean Firefly luciferase (FF) and Renilla luciferase (Ren) readings, n=3. Hits are circled in red. C) Average Z-score of Dual-glo Luciferase assay in HMLE-ZEB1 cells screened with LOPAC library; n=4. D) Validation of screening hits by Dual-glo Luciferase assay in HMLE-ZEB1 screened with LOPAC library by primary and secondary screens. […] Bottom, Fluorescence activated sorting analysis (FACS) of CD44 and CD24 staining in Dox induced HMLE-ZEB1 cells in presence or absence of Ken. […] Top, Representative fluorescence images of whole-mount of lung and second, histology of lung sections. […] I) Total number of metastasis as counted from whole mount of lung in mice implanted with in shControl and shGSK3β cells. n=3-5 for each group. **P<0.01 and ***P<0.001 as determined by as determined by one-way ANOVA with Dunnet's multiple comparison test. All data are presented as mean+/−SEM. *P<0.05, **P<0.01, ***P<0.001 and ****P<0.0001, not significant (ns) as determined by unpaired two-tailed t-test unless otherwise stated. […]

HMLE-TWIST cells [2] = assay: TWIST (4-OHT)-induced EMT: markers, morphology, CD44/CD24 FACS, acetylated tubulin; type: cell-based; conditions: 4-OHT induced HMLE-TWIST
Source text: (§1) FIG. 3: Identification of inhibitors of epithelial-mesenchymal transition from high-throughput screening of bioactive lipid library with the screening platform. A) Dual-glo Luciferase assay of HMLE-ZEB1 screened with bioactive lipid library. Data are represented as ratio of mean Firefly luciferase (FF) and Renilla luciferase (Ren) readings, n=3. Hits are circled in red. B) Average Z-score of Dual-glo Luciferase assay in HMLE-ZEB1 cells screened with bioactive lipid library; n=4. Compounds shown in red indicates top hits. C) Protein expression of EMT markers E-cadherin, Fibronectin Vimentin and Snail in DMSO and 4-OHT induced cells treated with and without Cay10603 (10 nM) in HMLE-TWIST. […] D) (First)Morphological evidence and (second) Fluorescence activated sorting analysis (FACS) of CD44 and CD24 staining in DMSO, 4-OHT, CAY10603 and 4-OHT+CAY10603 treated cells. […] E) Representative bright-field images and quantification of DMSO,4-OHT, CAY,4-OHT+CAY treated cells as shown by of scratch wound migration assay before and after 6 h of scratch in presence or absence of 4-OHT-induced EMT. […] F) (First) Representative images of whole-mount fluorescence lung image and (Second) histology of lung sections. […] All data are presented as mean+/−SEM. *P<0.05, **P<0.01, ***P<0.001 and ****P<0.0001, not significant (ns) as determined by unpaired two-tailed t-test unless otherwise stated. […]

HMLE-TWIST cells [3] = assay: Scratch wound migration assay in 4-OHT-induced EMT; type: cell-based; conditions: 6 h after scratch
Source text: as §1

Compound	DMSO normalized FF/RL(DMSO = 1) [1]	also measured
O=C(CCCCCCNC(=O)c1cnc(N(c2ccccc2)c2ccccc2)nc1)NO [ACY-1215, ricolinostat]		lung metastatic lesions (MCF7-SLUG+SOX9 cells; ACY-1215 50 mg/kg i.p. + Dox vs Dox-fed mice, 10 weeks after doxycycline): significantly reduced lung metastatic lesions; metastatic lesions in the lungs, shControl group (MCF7-SLUG+SOX9 cells; shControl cells, Dox induction, ACY-1215 treatment): reduced; metastatic lesions in the lungs, shGSK3β group (MCF7-SLUG+SOX9 cells; shGSK3β cells, ACY-1215 treatment, compared to Dox-fed shControl mice): reduced metastatic lesions most dramatically; tumor burden (MCF7-SLUG+SOX9 cells; shGSK3β group treated with ACY-1215 vs Dox-fed shControl): non-significant changes in tumor burden; EMT activation in primary tumors (higher HDAC6 and Fibronectin, low E-Cadherin) (MCF7-SLUG+SOX9 cells; tumors of ACY-1215+Dox mice vs Dox-fed mice): strikingly absent
CCc1ccc(/C=C2/SC(=S)NC2=O)cc1 [10058-F4]	0.5631	
Cc1ccc(C(=O)Cn2c3c(sc2=N)CCCC3)cc1 [Pifithrin-α]	0.348	
CCCCCCCCCCCCCCCCCCOC[C@H](COP(=O)([O-])OCC[N+](C)(C)C)OC [2-O-methyl PAF C-18]	0.35	
COc1cccc(-c2cc(=O)c3ccccc3o2)c1N [PD 98,059]	0.4592	
Cc1cc(O)c2c(c1)C(=O)c1cc(O)cc(O)c1C2=O [Emodin]	0.6268	
Oc1cc(O)cc(/C=C/c2ccc(O)c(O)c2)c1 [Piceatannol]	0.6253	
Nc1ccc(-c2ccc3ccccc3n2)cc1 [BF-170 hydrochloride]	0.5174	
COc1ccc(/C=C/C(=O)Nc2ccccc2C(=O)O)cc1OC [Tranilast]	0.4527	
O=c1cc(-c2ccc(O)cc2)oc2cc(O)cc(O)c12 [Apigenin]	0.5787	
O=C1Cc2c([nH]c3ccc(Br)cc23)-c2ccccc2N1 [Kenpaullone]	0.8715	inhibition of ZEB1-induced EMT (retention of epithelial morphology) (HMLE-ZEB1 cells): able to inhibit ZEB1-induced EMT
O=c1c2ccccc2nc2n1CCc1c-2[nH]c2ccccc12 [Rutaecarpine]	0.5597	
CC(C)(C)OC(=O)Nc1ccc(-c2cc(C(=O)NCCCCCCC(=O)NO)no2)cc1 [CAY 10603]	0.33	epithelial morphology and CD44 expression (FACS) (HMLE-TWIST cells [2]): retained epithelial morphology along with the block in gain of CD44 expression to some extent; inhibition of TWIST-driven EMT (retention of E-cadherin, no gain of mesenchymal markers) (HMLE-TWIST cells [2]; Cay10603 10 nM, protein expression): able to inhibit EMT; acquisition of migration ability, wound-healing assay (HMLE-TWIST cells [3]): blocked the acquisition of migration ability
